Reference: patent publication US7407775B2, “Method for identifying Listeria monocytogenes and culture medium” (Biomerieux S.A., priority 2000, dated 2008)

How the values were obtained:
Format in all cases: cell-based
[1] = test system: Listeria monocytogenes ATCC 19115; test: Experiment 2: octanoate esterase substrates with different Indoxyl-based chromogenic markers; set-up: key to I (intensity of the color): —: the symbol “-” corresponds to the absence of color or intensity; 0 corresponds to no activity; 0.1 corresponds to a trace of color; 0.5 corresponds to very pale coloration; 1 corresponds to clear but low-intensity coloration; 1.5 corresponds to a degree of coloration intermediate between scores 1 and 2; 2 corresponds to clear coloration of moderate intensity; 2.5 corresponds to a degree of coloration intermediate between scores 2 and 3; 3 corresponds to intense coloration; 3.5 corresponds to a degree of coloration intermediate between scores 3 and 4; 4 corresponds to very intense coloration; conditions: 37° C., substrate 250 mg/l
Description: (§1) In Table 1 above, as in the following Tables, C represents the color of the colonies after incubation, I represents the intensity of the color, and the symbol “-” corresponds to the absence of color or intensity; finally, IT defines the incubation time. It should be noted that the intensity of the color is scored on an arbitrary scale but one which is consistent for all the biological specimens and media tested. This scale is valid for this experiment as well as all those that follow. It can be defined in the following way: • 0 corresponds to no activity, • 0.1 corresponds to a trace of color, • 0.5 corresponds to very pale coloration, • 1 corresponds to clear but low-intensity coloration, • 1.5 corresponds to a degree of coloration intermediate between scores 1 and 2, • 2 corresponds to clear coloration of moderate intensity, • 2.5 corresponds to a degree of coloration intermediate between scores 2 and 3, • 3 corresponds to intense coloration, • 3.5 corresponds to a degree of coloration intermediate between scores 3 and 4, • 4 corresponds to very intense coloration.
(§2) A stock solution of each substrate at a concentration of 40 g/l was made up in a mixture of 40% Dimethylsulfoxide and 60% Tween 20. An appropriate volume was added to four Columbia-type media while cooling to give a final substrate concentration of 250 mg/l. These dishes were divided into three areas and then each area was inoculated with a suspension (density=0.5 McFarland) of microorganisms taken from either the Applicant's own collection or the ATCC. The dishes were incubated for 48 hours at 37° C. The colonies which grew were examined by eye after 24 and 48 hours of incubation. Both the color and the intensity of the color of the colonies were recorded.

[2] = test system: Listeria monocytogenes 092; test: as above; set-up: key to I (intensity of the color): —: the symbol “-” corresponds to the absence of color or intensity; 0 corresponds to no activity; 0.1 corresponds to a trace of color; 0.5 corresponds to very pale coloration; 1 corresponds to clear but low-intensity coloration; 1.5 corresponds to a degree of coloration intermediate between scores 1 and 2; 2 corresponds to clear coloration of moderate intensity; 2.5 corresponds to a degree of coloration intermediate between scores 2 and 3; 3 corresponds to intense coloration; 3.5 corresponds to a degree of coloration intermediate between scores 3 and 4; 4 corresponds to very intense coloration; conditions: 37° C., substrate 250 mg/l
Description: as §1, §2

[3] = test system: Listeria monocytogenes ATCC 19117; test: as above; set-up: key to I (intensity of the color): —: the symbol “-” corresponds to the absence of color or intensity; 0 corresponds to no activity; 0.1 corresponds to a trace of color; 0.5 corresponds to very pale coloration; 1 corresponds to clear but low-intensity coloration; 1.5 corresponds to a degree of coloration intermediate between scores 1 and 2; 2 corresponds to clear coloration of moderate intensity; 2.5 corresponds to a degree of coloration intermediate between scores 2 and 3; 3 corresponds to intense coloration; 3.5 corresponds to a degree of coloration intermediate between scores 3 and 4; 4 corresponds to very intense coloration; conditions: 37° C., substrate 250 mg/l
Description: as §1, §2

[4] = test system: Listeria innocua ATCC 33090; test: Experiment 1: esterase substrates, same chromogenic marker, fatty acids of different chain lengths; set-up: key: —: the symbol “-” corresponds to the absence of color or intensity; 0 corresponds to no activity; 0.1 corresponds to a trace of color; 0.5 corresponds to very pale coloration; 1 corresponds to clear but low-intensity coloration; 1.5 corresponds to a degree of coloration intermediate between scores 1 and 2; 2 corresponds to clear coloration of moderate intensity; 2.5 corresponds to a degree of coloration intermediate between scores 2 and 3; 3 corresponds to intense coloration; 3.5 corresponds to a degree of coloration intermediate between scores 3 and 4; 4 corresponds to very intense coloration; conditions: 37° C., substrate 250 mg/l
Description: as §2, with “Polyoxyethylenesorbitan Monolaurate (Tween 20).” for “Tween 20.”, “three” for “four”
as §1

[5] = test system: Listeria ivanovii 018; test: Experiment 3: detecting an esterase activity in liquid medium (API-type strips); set-up: key: —: the symbol “-” corresponds to the absence of color or intensity; 0 corresponds to no activity; 0.1 corresponds to a trace of color; 0.5 corresponds to very pale coloration; 1 corresponds to clear but low-intensity coloration; 1.5 corresponds to a degree of coloration intermediate between scores 1 and 2; 2 corresponds to clear coloration of moderate intensity; 2.5 corresponds to a degree of coloration intermediate between scores 2 and 3; 3 corresponds to intense coloration; 3.5 corresponds to a degree of coloration intermediate between scores 3 and 4; 4 corresponds to very intense coloration; conditions: 37° C.
Description: as §1
These substrates were lyophilized in the wells of API-type strips (Registered Trademark). Before use, the substrates contained in the wells were resuspended in an agar-free Columbia-type inoculation medium. These wells were then inoculated with a suspension (density=2 McFarland) of microorganisms taken from either the Applicant's own collection or the ATCC. The strips were incubated for 8 hours at 37° C. The colonies which grew were examined by eye after 4, 6 and 8 hours of incubation.
The intensity of the color of the colonies was recorded.

| C (color of the colonies) ([1]; IT 24 h) | C (color of the colonies) ([1]; IT 48 h) | C (color of the colonies) ([2]; IT 24 h) | C (color of the colonies) ([2]; IT 48 h) | C (color of the colonies) ([3]; IT 24 h) | C (color of the colonies) ([3]; IT 48 h) | C (color of the colonies) ([4]; IT 48 h) | SMILES | I (intensity of the color) ([1]; IT 24 h) | I (intensity of the color) ([1]; IT 48 h) | I (intensity of the color) ([2]; IT 24 h) | I (intensity of the color) ([2]; IT 48 h) | I (intensity of the color) ([3]; IT 24 h) | I (intensity of the color) ([3]; IT 48 h) | C (color of the colonies) ([4]; IT 24 h) | I (intensity of the color) ([4]; IT 24 h) | I (intensity of the color) ([4]; IT 48 h) | I (intensity of the color) ([5]; IT 4 h) | I (intensity of the color) ([5]; IT 6 h) | I (intensity of the color) ([5]; IT 8 h) |
| --- | --- | --- | --- | --- | --- | --- | --- | --- | --- | --- | --- | --- | --- | --- | --- | --- | --- | --- | --- |
| purple | purple | purple | purple | purple | purple |  | CCCCCCCC(=O)Oc1c[nH]c2cc(Cl)c(Br)cc12 [Magenta-C8, 5-Bromo-6-chloro-3-indolyl octanoate] | 2 | 3 | 3 | 3 | 1.5 | 3.5 |  |  |  | — | — | — |
| pink | pink | pink | pink | pink | pink |  | CCCCCCCC(=O)Oc1c[nH]c2cc(Cl)ccc12 [Pink-C8, 6-Chloro-3-indolyl octanoate] | 0.5 | 1 | 1.5 | 2 | 0.5 | 1 |  |  |  | — | — | — |
| turquoise | turquoise | turquoise | turquoise | turquoise | turquoise |  | CCCCCCCC(=O)Oc1c[nH]c2ccc(Br)c(Cl)c12 [X-C8, 5-Bromo-4-chloro-3-indolyl octanoate] | 2.5 | 3 | 3 | 3.5 | 2 | 3 |  |  |  | — | — | — |

Further lines, the compound ahead of its results:

| SMILES | C (color of the colonies) ([1]; IT 24 h) | C (color of the colonies) ([1]; IT 48 h) | C (color of the colonies) ([2]; IT 24 h) | C (color of the colonies) ([2]; IT 48 h) | C (color of the colonies) ([3]; IT 24 h) | C (color of the colonies) ([3]; IT 48 h) | C (color of the colonies) ([4]; IT 48 h) | I (intensity of the color) ([1]; IT 24 h) | I (intensity of the color) ([1]; IT 48 h) | I (intensity of the color) ([2]; IT 24 h) | I (intensity of the color) ([2]; IT 48 h) | I (intensity of the color) ([3]; IT 24 h) | I (intensity of the color) ([3]; IT 48 h) | C (color of the colonies) ([4]; IT 24 h) | I (intensity of the color) ([4]; IT 24 h) | I (intensity of the color) ([4]; IT 48 h) | I (intensity of the color) ([5]; IT 4 h) | I (intensity of the color) ([5]; IT 6 h) | I (intensity of the color) ([5]; IT 8 h) |
| --- | --- | --- | --- | --- | --- | --- | --- | --- | --- | --- | --- | --- | --- | --- | --- | --- | --- | --- | --- |
| CCCCCCCC(=O)Oc1c[nH]c2ccc(Br)cc12 [Blue-C8, 5-Bromo-3-indolyl octanoate] | gray | gray | gray | gray | gray | gray | gray | 1 | 2 | 1.5 | 2.5 | 1 | 2 | gray | 0.3 | 0.5 |  |  |  |
| CCCCCCCCC(=O)Oc1c[nH]c2ccc(Br)cc12 [Blue-C9, 5-Bromo-3-indolyl nonanoate] |  |  |  |  |  |  | gray |  |  |  |  |  |  | — | — | 0.3 |  |  |  |
| CCCCCCCCCC(=O)Oc1c[nH]c2ccc(Br)cc12 [Blue-C10, 5-Bromo-3-indolyl decanoate] |  |  |  |  |  |  | gray |  |  |  |  |  |  | — | — | 0.3 |  |  |  |
